According to patent publication US20040132817A1, “Use of an histone deacetylase inhibitor for the treatment of diseases associated with an hpv infection” (priority 2001, published 2004):

Experiments:
p45^SKP2 = assay: Western blot of p45^SKP2 in HeLa cells; type: cell-based, human; conditions: 16 hours
Experimental: (§1) (A) Westem blot analysis. 50 μg of cellular protein were loaded on SDS-PAGE minigels. After electrotransfer, the filters were incubated with p21^CIP1, p27^KIP1, p16^INK4 and p45^SKP2. Equal protein loading was confirmed by a monoclonal actin antibody.
(§2) Cellular extracts were separated in 8-12% SDS PAGE gels and electrotransferred as described elsewhere (Finzer et al., Oncogene 19 (2000), 3235-3244; Soto et al., Oncogene 18 (1999), 3187-3198). The following antibodies were used: cyclin E (HE 12), cyclin D 1 (HD 11), cdk2 (M2), (D-12; Santa Cruz Biotechnology, Inc., Santa Cruz, USA), cdk4 (C-22), cdk6 (C-21), p27^KIP1 (C-19), (K25020), p45^SKP2 (N-19), HPV18-E7 (N-19) and E2F-1 (KH95) (Santa Cruz Biotechnology, Inc. Santa Cruz, USA), p21^CIP1 (C24420; Transduction Laboratories, Lexington, USA), pRB (NCL-RB; Novocastra, UK), p16^INK4 (15126E, Pharmingen, San Diego, USA) and HPV 16 E7 (ZYMED Lab. Inc., San Francisco, USA). Cyclin A was kindly provided by M. Pagano (Pagano et al., EMBO J. 11 (1992), 961-971). Equal protein transfer and loading was routinely checked by incubating the filters with a monoclonal actin antibody (ICN Biomedicals, Ohio, USA).
(§3) Western blot analysis. 50 μg of cellular protein was loaded on SDS-PAGE minigels. After electrotransfer, the filters were incubated with p21^CIP1, p27^KIP1, p16^INK4 and p45^SKP2. […]

cdk2 = assay: Histone H1 kinase assay of cdk2 complexes immunoprecipitated from HeLa cells; type: cell-based, human; conditions: for cdk2 kinase activity, time course: 6 mM sodium butyrate, 3, 6, 9, 12 and 16 hours; for cdk2 kinase activity (histone H1): 16 hours
From the text: (A) Autoradiography. Cdk2 complexes were immunoprecipitated from HeLa cells and assayed for their activity using histone H1 as substrate. (“[…]”: preimmune serum).
(B) Cdk2 activity after NaB application. Upper panel: Cdk 2 complexes were immunoprecipitated and assayed for their activity using histone H1 as substrate. Lower panels: Western blot analysis of the cdk 2 complexes which were precipitated, separated in a 12% SDS-PAGE gel and immunoblotted with specific antibodies used in panel A. Loading was verified by incubation with cdk 2 antibodies.
For cell fractionation, cell monolayers were washed twice with PBS and harvested by trypsinisation. Cell extract preparation and cdk2 activity assays were exactly done as described by Blomberg and Hoffmann, Mol. Cell. Biol. 19 (1999), 6183-6194. In addition, cdk2 was immunoprecipitated and analyzed by immunoblotting. Beads used for cdk2 kinase assay were washed 3 times with lysis buffer (Blomberg and Hoffmann, 1999), incubated with Laemmli sample buffer and boiled for 5 min. Supernatant was analyzed by SDS-PAGE gels. Immunoblotting was carried out with the following antibodies: p21^CIP1 (C24420) and p27^KIP1 (K25020; Transduction Laboratories) or HPV18-E7 (N-19; Santa Cruz, Inc.). Cdk2 specific antibodies or preimmune serum were kindly provided by I. Hoffmann (DKFZ, Heidelberg).
Autoradiography. Cdk2 complexes were immunoprecipitated from HeLa cells and assayed for their activity using histone H1 as substrate. (“PI”: preimmune serum).
Autoradiography. Cdk2 complexes were immunoprecipitated from HeLa cells and assayed for their activity as in (c). […] (Contr.): untreated cells harvested after 3, 6, 9, 12, and 16 hours.

cyclin E = assay: Western blot of cyclin E in HeLa cells; type: cell-based, human; conditions: 16 hours
Experimental: 50 μg of protein were separated on 12% SDS-PAGE minigels. After electrotransfer, the filters were incubated with antibodies against cyclin D1, cyclin E, cyclin A or cdk2, cdk4 or cdk6 specific antibodies. Equal protein loading was confirmed by reincubating the filters with a monoclonal actin antibody.
as §2
50 μg of protein was separated on 12% SDS-PAGE minigels. […]

E2F-1 = assay: Western blot of E2F-1 in HeLa cells; type: cell-based, human; conditions: 16 hours
Experimental: (B and C) Western blot analysis. 50 μg of protein were separated in 8% (for pRb) and 12% SDS-PAGE gels. After electrotransfer, the filters were incubated with pRb, E2F-1 (B) and (C) p53 specific antibodies. Equal protein loading was confirmed with a monoclonal actin antibody.
as §2
Western blot analysis: 50 μg of protein was separated in 8% (for pRb) and 12% SDS-PAGE gels. After electrotransfer, the filters were incubated with pRb, E2F-1 (f) and (g) p53 specific antibodies. […]

p21^CIP1 = assay: Western blot of p21^CIP1 in HeLa cells; type: cell-based, human; conditions: 16 hours
Experimental: as §1, §2, §3

[1] = tested on: HPV16 E6/E7 transcription; assay: Northern blot of HPV16 transcription in "1321" keratinocytes; type: cell-based
Experimental: Keratinocytes immortalized with HPV16 E6/E7 either under control of (A) the homologues viral upstream regulatory region (,1637″) or (B) of the β-actin promoter (,1321″) were incubated with NaB for various periods of time. 5 μg of RNA was separated in 1% agarose gels. The filters were hybridized with probes specific for HPV16, p21^CIP1 (=p21), β-actin and GAPDH. The positions of the 28S and 18S ribosomal RNA are indicated. (Contr.): untreated cells.
(A) 5 μg of RNA was separated in 1% agarose gels. The filters were hybridized with HPV 16, p21^CIP1 (=) p21 and GAPDH-specific probes. The positions of the 28S and 18S ribosomal RNA are indicated.
Total cellular RNA was extracted according to the guanidinium-thiocyanate procedure (Chomczynski and Sacchi, Anal. Biochem. 162 (1987), 156-159). Approximately 5 μg RNA were separated on 1% agarose gels in the presence of ethidium bromide under non-denaturing conditions and transferred to GeneScreen Plus membranes (DuPont, Bad Homburg, Deutschland). The filters were hybridized under stringent conditions with specific probes, which were labeled with ^32p-dCTP by random priming (Feinberg and Vogelstein, Anal. Biochem. 137 (1984), 266-267).

Row | SMILES | p45^SKP2 protein level (p45^SKP2; 6 mM sodium butyrate) | cdk2 kinase activity, time course (cdk2) | cdk2 kinase activity, time course (cdk2; listed as NaB) | cdk2 kinase activity (histone H1) (cdk2; 6 mM sodium butyrate, vs untreated control) | cyclin E protein level (cyclin E; 6 mM sodium butyrate) | E2F-1 level (E2F-1; 6 mM sodium butyrate) | p21^CIP1 protein level (p21^CIP1; 6 mM sodium butyrate) | HPV16 transcription, time course ([1]; "1321" cells, NaB, induced three hours after treatment) | HPV mRNA after longer incubation ([1]; NaB, 16 hours) | p45^SKP2 protein level (p45^SKP2; 330 nM trichostatin A, listed as Trichostatin A) | cdk2 kinase activity (histone H1) (cdk2; 330 nM trichostatin A) | cyclin E protein level (cyclin E; 330 nM trichostatin A) | E2F-1 level (E2F-1; 330 nM trichostatin A) | p21^CIP1 protein level (p21^CIP1; 330 nM trichostatin A) | divergent HPV16 regulation in "1637" and "1321" cells ([1]; TSA (data not shown))
1 | CCCC(=O)[O-].[Na+] [sodium butyrate] | strongly suppressed | still active after 9 hours, but abruptly declined 3 hours later | remained active up to 9 hours, but immediately declined between 12-16 hours | completely abolished | strongly increased | no consequences on gene expression and translation | significantly induced | strong upregulation | declined to basal levels | – | – | – | – | – | –
2 | CC(/C=C/C(=O)NO)=C\[C@@H](C)C(=O)c1ccc(N(C)C)cc1 [trichostatin A] | – | – | – | – | – | – | – | – | – | Suppresses | Suppresses | Upregulates | without Affecting | Induces | Analogous results
